The text below walks through data of US8987284B2, “Phosphorus containing quinazoline compounds and methods of use” (Newgen Therapeutics, Inc., priority 2009, dated 2015).

The assay has as its target T1, EGFR kinase (Homo sapiens, UniProt P00533).
T1 construct: purchased Invitrogen PV3872
Put plainly: Kinase assay for EGFR (TR-FRET LanthaScreen). Type of assay: biochemical. Conditions: % inhibition at 100 nM or IC50 (nM). How it is done:
The extent to which the compounds of the present invention modulate EGFR kinase activity can be determined using time-resolved Fret (TR-FRET) assay (LanthaScreen® kinase activity assay, from Invitrogen). The assay employs EGFR kinase (PV3872, Invitrogen), Tb-Py20 antibody (PV3552, Invitrogen) and fluorescein-poly GT (PV3610, In vitrogen)
The assay is performed in a Black 384-well plate (available from Corning). EGFR kinase (is diluted in TR-FRET Dilution Buffer (PV3189, InVitrogen) at concentration of 0.4 ug/ml as stock solution, and then 2-fold serial diluted. Addition of 1 mM ATP initiated the reaction, and the reaction is incubated for 1 h reaction at room temperature. 10 μL of the Tb-antibody (from Invitrogen)+EDTA (from Invitrogen) solution prepared was added to each well of the assay plate and mix briefly, and incubated for 30 min. The signal is monitored by using M5 microplate reader (Ex=332 nm, Em=488 nm and 518 nm). Each compound is tested in duplicate wells. EGFR without compound is used as control. Staurosporine (available from Sigma) is used as positive control compound. Inhibition was calculated as percentage of the EGFR activity (without compound)

T1 sequence (P00533 25-1210): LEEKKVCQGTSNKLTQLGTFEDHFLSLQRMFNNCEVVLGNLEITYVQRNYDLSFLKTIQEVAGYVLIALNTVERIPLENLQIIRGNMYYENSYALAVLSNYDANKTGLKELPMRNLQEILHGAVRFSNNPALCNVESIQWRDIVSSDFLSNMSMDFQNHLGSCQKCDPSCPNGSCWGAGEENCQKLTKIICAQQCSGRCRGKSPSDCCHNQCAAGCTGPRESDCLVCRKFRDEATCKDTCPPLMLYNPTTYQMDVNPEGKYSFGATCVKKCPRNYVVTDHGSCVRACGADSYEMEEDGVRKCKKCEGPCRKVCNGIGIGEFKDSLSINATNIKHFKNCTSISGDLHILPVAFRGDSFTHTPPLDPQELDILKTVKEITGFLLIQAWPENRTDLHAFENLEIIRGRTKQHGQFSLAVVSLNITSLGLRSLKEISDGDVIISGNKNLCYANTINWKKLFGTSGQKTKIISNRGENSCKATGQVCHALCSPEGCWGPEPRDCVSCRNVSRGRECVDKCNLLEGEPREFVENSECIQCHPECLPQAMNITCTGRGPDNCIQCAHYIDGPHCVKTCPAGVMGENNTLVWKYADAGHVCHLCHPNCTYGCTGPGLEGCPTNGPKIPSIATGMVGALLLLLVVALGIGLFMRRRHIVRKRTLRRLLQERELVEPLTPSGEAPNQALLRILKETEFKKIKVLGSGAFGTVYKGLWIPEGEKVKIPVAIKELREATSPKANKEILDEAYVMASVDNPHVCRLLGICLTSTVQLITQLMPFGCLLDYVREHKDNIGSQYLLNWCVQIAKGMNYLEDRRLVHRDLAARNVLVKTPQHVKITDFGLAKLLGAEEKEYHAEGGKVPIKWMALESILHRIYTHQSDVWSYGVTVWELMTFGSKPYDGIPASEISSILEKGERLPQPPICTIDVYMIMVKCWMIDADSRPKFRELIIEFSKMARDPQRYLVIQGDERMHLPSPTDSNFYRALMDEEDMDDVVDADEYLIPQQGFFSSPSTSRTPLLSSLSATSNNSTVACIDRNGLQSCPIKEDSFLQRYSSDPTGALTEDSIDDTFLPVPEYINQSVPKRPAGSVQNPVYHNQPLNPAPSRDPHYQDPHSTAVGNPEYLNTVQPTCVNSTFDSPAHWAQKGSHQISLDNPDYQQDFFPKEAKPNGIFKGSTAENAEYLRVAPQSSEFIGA

On to `CP1(=O)CCN(CCCc2ccc3ncnc(Nc4ccc(OCc5cccc(F)c5)c(Cl)c4)c3c2)CC1` [Example 5, N-(3-chloro-4-(3-fluorobenzyloxy)phenyl)-6-(3-(4-methyl-1,4-azaphosphino-1-yl)propyl)quinazolin-4-amine], for which the “EGFR inhibition inhibit % at 100 nM or IC50 (nM)” value (“EGFR inhibition inhibit %” for short) was “++ (>50% inhibition at 100 nM, or IC50 <100 nM for EGFR or ErbB2 kinases)”.

With `COP(=O)(CCNCc1ccc(-c2ccc3ncnc(Nc4ccc(OCc5cccc(F)c5)c(Cl)c4)c3c2)o1)OC` [Example 6, dimethyl 2-((5-(4-(3-chloro-4-(3-fluorobenzyloxy)phenylamino)quinazolin-6-yl)furan-2-yl)methylamino)ethylphosphonate], the “EGFR inhibition inhibit %” value is “++ (>50% inhibition at 100 nM, or IC50 <100 nM for EGFR or ErbB2 kinases)”. In the case of `CC1(C)COP(=O)(CCNCc2ccc(-c3ccc4ncnc(Nc5ccc(OCc6cccc(F)c6)c(Cl)c5)c4c3)o2)OC1` [Example 7, N-(3-chloro-4-(3-fluorobenzyloxy)phenyl)-6-(5-((2-(5,5-dimethyl-1,3,2-dioxaphosphino-2-yl)ethylamino)methyl)furan-2-yl)quinazolin-4-amine], the “EGFR inhibition inhibit %” value was “++ (>50% inhibition at 100 nM, or IC50 <100 nM for EGFR or ErbB2 kinases)”.

On to `CP(C)(=O)CCNCC#Cc1ccc2ncnc(Nc3ccc(OCc4cccc(F)c4)c(Cl)c3)c2c1` [Example 10, 6-(3-(2-(dimethylphosphinoyl)ethylamino)prop-1-ynyl)-N-(4-(3-fluorobenzyloxy)-3-chlorophenyl)quinazolin-4-amine], for which the “EGFR inhibition inhibit %” value is listed as “++ (>50% inhibition at 100 nM, or IC50 <100 nM for EGFR or ErbB2 kinases)”. With `CP1(=O)CCN(C/C=C/c2ccc3ncnc(Nc4ccc(OCc5cccc(F)c5)c(Cl)c4)c3c2)CC1` [Example 11, N-(4-(3-fluorobenzyloxy)-3-chlorophenyl)-6-((E)-3-(4-methyl-1,4-azaphosphino-1-yl)prop-1-enyl)quinazolin-4-amine] the entry was “++ (>50% inhibition at 100 nM, or IC50 <100 nM for EGFR or ErbB2 kinases)”; with `Cc1ccc(Oc2ccc(Nc3ncnc4ccc(-c5ccc(CN6CCP(C)(=O)CC6)o5)cc34)cc2C)cn1` [Example 12], “++ (>50% inhibition at 100 nM, or IC50 <100 nM for EGFR or ErbB2 kinases)”; with `CP1(=O)CCN(Cc2ccc(-c3ccc4ncnc(Nc5ccc(OCc6cccc(F)c6)c(Br)c5)c4c3)o2)CC1` [Example 14, N-(4-(3-fluorobenzyloxy)-3-bromophenyl)-6-(5-((4-methyl-1,4-azaphosphino-1-yl)methyl)furan-2-yl)quinazolin-4-amine], “++ (>50% inhibition at 100 nM, or IC50 <100 nM for EGFR or ErbB2 kinases)”.

On to `CP1(=O)CCN(Cc2ccc(-c3ccc4ncnc(Nc5ccc6c(cnn6Cc6cccc(F)c6)c5)c4c3)o2)CC1` [Example 16, N-(1-(3-fluorobenzyl)-1H-indazol-5-yl)-6-(5-((4-methyl-1,4-azaphosphino-1-yl)methyl)furan-2-yl)quinazolin-4-amine], for which the “EGFR inhibition inhibit %” value is “++ (>50% inhibition at 100 nM, or IC50 <100 nM for EGFR or ErbB2 kinases)”. With `C[C@@H](Nc1ncnc2ccc(-c3ccc(CN4CCP(C)(=O)CC4)o3)cc12)c1ccccc1` [Example 18, (R)-6-(5-((4-methyl-1,4-azaphosphino-1-yl)methyl)furan-2-yl)-N-(1-phenylethyl)quinazolin-4-amine] the entry was “++ (>50% inhibition at 100 nM, or IC50 <100 nM for EGFR or ErbB2 kinases)”; with `CP1(=O)CCN(Cc2ccc(-c3ccc4ncnc(Nc5cccc(Cl)c5F)c4c3)o2)CC1` [Example 19, N-(3-chloro-2-fluorophenyl)-6-(5-((4-methyl-1,4-azaphosphino-1-yl)methyl)furan-2-yl)quinazolin-4-amine], “++ (>50% inhibition at 100 nM, or IC50 <100 nM for EGFR or ErbB2 kinases)”.
